Where a name gives a salt, the structure may show the parent alone.
Test system: host-versus-graft reaction (HvGR) in the rat
Test: Inhibitory activity against host-versus-graft reaction (HvGR) in the rat (popliteal lymph node weight)
Type: in vivo
Conditions: po, 1 mg/kg orally once daily for 4 successive days, Lewis rats injected with WKAH/Hkm spleen cells, weight of popliteal lymph nodes vs control group, read-out: Inhibition Rate (%, 1 mg/kg of administration)
From the text: Determination of Inhibitory Activities of the Compound Against Host-Versus-graft Reaction (HvGR) in the Rat
(1) Two strains of rats [Lewis rats (male, 6 weeks of age, Charles River Japan Inc.) and WKAH/Hkm rats (male, 7 weeks of age, Japan SLC Inc.)] were used. Five rats (host) per group were used.
Spleen cells were isolated from the spleens of WKAH/Hkm rats or Lewis rats and floated in RPMI1640 medium (Life Technologies Inc.) at a concentration of 1×10^8 cells/ml. A 0.1-ml aliquot of the medium containing the free-floating spleen cells (1×10^7 cells) of WKAH/Hkm rats or Lewis rats was then intradermally injected into the bilateral foot pads of the hindlimbs of both sides of Lewis rats.
(3) Administration of Test Compound
The test compound was suspended in 0.5% tragacantha solution. The suspended solution of a compound of the present invention (5 ml/kg of body weight of the rat) was orally administered to rats of the drug-treated group (the Lewis rats in which spleen cells of WKAH/Hkm rats were injected and the test compound was administered) once daily for 4 successive days starting on the day of the spleen cell injection. Furthermore, tragacantha solution (0.5%) instead of the test substance was orally administered to rats in the “same strain group” (Lewis rats injected with spleen cells of Lewis rats) and the control group (Lewis rats injected with spleen cells of WKAH/Hkm rats and not treated with the test compound).
(4) Determination of Inhibitory Activity Against HvGR
The average weight of the popliteal lymph nodes of the same strain rats was subtracted from the individual weights of the popliteal lymph nodes of individual rats (“weight of the popliteal lymph nodes after HvGR-induction”). The inhibitory activity of a compound was calculated from the “weight of the popliteal lymph nodes after HvGR induction” of individual rats in the drug-treated group versus the average “weight of the popliteal lymph nodes after HvGR induction” in the control group.

Compound	inhibition in vivo at 1 mg/kg [%]
Cc1cc(-c2nc(-c3ccc(CN4CC(C(=O)O)C4)nc3C)no2)ccc1CC(C)C [Example 27, 1-({5-[5-(4-Isobutyl-3-methylphenyl)-1,2,4-oxadiazol-3-yl]-6-methylpyridin-2-yl}methyl)azetidine-3-carboxylic acid 1/2 oxalate]	80.6
Cc1cc(CN2CC(C(=O)O)C2)sc1-c1noc(-c2ccc(Oc3ccccc3)cc2)n1 [Example 12, 1-({4-Methyl-5-[5-(4-phenoxyphenyl)-1,2,4-oxadiazol-3-yl]-2-thienyl}methyl)azetidine-3-carboxylic acid]	55.4
CCc1cc(CN2CC(C(=O)O)C2)sc1-c1noc(-c2ccc(Oc3ccccc3)c(F)c2)n1 [Example 14, 1-({4-Ethyl-5-[5-(3-fluoro-4-phenoxyphenyl)-1,2,4-oxadiazol-3-yl]-2-thienyl}methyl)azetidine-3-carboxylic acid]	65.6
CC(C)Cc1ccc(-c2nc(-c3ccc(CN4CC(C(=O)O)C4)nc3)no2)cc1Cl [Example 26, 1-({5-[5-(3-Chloro-4-isobutylphenyl)-1,2,4-oxadiazol-3-yl]pyridin-2-yl}methyl)azetidine-3-carboxylic acid]	80
CCc1cc(CN2CC(C(=O)O)C2)sc1-c1noc(-c2ccc(Oc3cccc(F)c3)cc2)n1 [Example 17, 1-[(4-Ethyl-5-{5-[4-(3-fluorophenoxy)phenyl]-1,2,4-oxadiazol-3-yl}-2-thienyl)methyl]azetidine-3-carboxylic acid]	65
CCc1cc(CN2CC(C(=O)O)C2)sc1-c1noc(-c2ccc(Oc3ccccc3)cc2)n1 [Example 13, 1-({4-Ethyl-5-[5-(4-phenoxyphenyl)-1,2,4-oxadiazol-3-yl]-2-thienyl}methyl)azetidine-3-carboxylic acid]	61.3
CC[C@H](C)Oc1ccc(-c2nc(-c3ccc(CN4CC(C(=O)O)C4)cc3)no2)cc1 [Reference Compound 1, reference compound]	-15.5
CCc1cc(CN2CC(C(=O)O)C2)sc1-c1noc(-c2ccc(Oc3ccccc3F)cc2)n1 [Example 10, 1-[(4-Ethyl-5-{5-[4-(2-fluorophenoxy)phenyl]-1,2,4-oxadiazol-3-yl}-2-thienyl)methyl]azetidine-3-carboxylic acid 1/2 oxalate]	61.8
Cc1cc(CN2CC(C(=O)O)C2)sc1-c1noc(-c2ccc(Oc3ccccc3)c(F)c2)n1 [Example 11, 1-({5-[5-(3-Fluoro-4-phenoxyphenyl)-1,2,4-oxadiazol-3-yl]-4-methyl-2-thienyl}methyl)azetidine-3-carboxylic acid]	51.6
Cc1cc(-c2nc(-c3ccc(CN4CC(C(=O)O)C4)nc3)no2)ccc1CC(C)C [Example 28, 1-({5-[5-(4-Isobutyl-3-methylphenyl)-1,2,4-oxadiazol-3-yl]pyridin-2-yl}methyl)azetidine-3-carboxylic acid 1/2 oxalate]	77.5
O=C(O)C1CN(Cc2ccc(-c3noc(-c4ccc(OC5CCC5)cc4)n3)cc2)C1 [Reference Compound 2, reference compound]	-19
CCc1nc(CN2CC(C(=O)O)C2)ccc1-c1noc(-c2ccc(CC(C)C)c(C)c2)n1 [Example 29, 1-({6-Ethyl-5-[5-(4-isobutyl-3-methylphenyl)-1,2,4-oxadiazol-3-yl]pyridin-2-yl}methyl)azetidine-3-carboxylic acid]	83.5

From US7687491B2, “Heterocyclic compound” (Daiichi Sankyo Company, Limited, priority 2005, dated 2010)
